# Patent US11261189B2, “Substituted 2,4 diamino-quinoline as new medicament for fibrosis, autophagy and cathepsins B (CTSB), L (CTSL) and D (CTSD) related diseases” (Genoscience Pharma, priority 2018, dated 2022)
# “Also recorded” adds a separate entry of the source. Where a name gives a salt, the structure may show the parent alone.
# Test system: autophagy flux (LC3-II) in HepG2 cell line
# Assay: Autophagy flux, LC3-II immunoblot with/without Bafilomycin, HepG2 cell line
# Assay type: cell-based
# Settings: 4 hours and 24 hours of treatment
# Description: Since compound 2-3 induced an inhibition of the proteolytic activity of cathepsins B, D and/or L (see example 1) supporting an inhibition of some lysosomal functions which can affect the cellular autophagy flux, the capacity of compound 2-3 to modulate the cellular autophagy processes and functions was evaluated in two Hepatocellular carcinoma (HCC) cell lines: Huh7 and HepG2. For this purpose, the accumulation of LC3-II (Light Chain 3 phosphatidylethanolamine conjugate) in presence or absence of compound 2-3 was analyzed using immunoblot analysis of LC3-II.
# The HepG2 cell line was maintained in DMEM low glucose (Cat #21885025, ThermoFischer) containing 1% penicillin-streptomycin (Cat #P06-07100, Dutscher) and 10% FBS (Cat #SV30160.03C, Dutscher). The Huh7 cell line was maintained in DMEM high glucose (Cat #L0103-500, Dutscher) containing 1% penicillin-streptomycin (Cat #P06-07100, Dutscher) and 10% SVF (Cat #SV30160.03C, Dutscher). Cells lines were cultured at 37° C. with 5% CO2.
# The day before the experiment, 6-well plates with 250,000 cells for HepG2 and 310,000 cells for Huh7 in 1.8 mL of medium per well were prepared. […]
# After 4 hours and 24 hours of cells treatment, the medium was removed from each well. […] Total protein concentration was assessed using the BCA reagent (Cat #23227, ThermoFischer) and cellular lysates were stored at −80° C. until western-blot analysis. […]
smiles,measurement,setting,value
"CC(C)(C)NC1CCN(c2cc(NCc3ccc(Cl)cc3)nc3ccccc23)CC1 [2-3, 2-(4-chlorobenzylamino)-4-(4-tert-butylaminopiperidin-1-yl)-quinoline Hydrochloride Salt]",accumulation of the LC3-II form,,"significantly induced, in a dose-dependent manner, an accumulation of the LC3-II form"
same,autophagy flux (LC3-II Baf+/Baf− ratio),Hydrochloride Salt,inhibition; also recorded: inhibitor of the autophagy flux
